Like-named read-outs stand apart in the source and are kept apart here.
How the values were obtained:
[1] = TPM cytotoxicity of cigarette smoke
[2] = Gas vapor phase (GVP) toxicity
Description: Additionally, a control filler was sprayed with 20 g of deionized H2O. Next, the sprayed fillers were dried, conditioned and processed into handmade cigarettes.

[3] = TPM mutagenicity of cigarette smoke
[4] = Table 1, filler additive 10.8% NH4OAc or 6.3% Co(NH3)6Cl3, vs water-sprayed control
[5] = Table 4, NH4OAc alone: filler treatment scaled up to 300 g/batch

N.N.N.N.N.N.[Cl-].[Cl-].[Cl-].[Co+3] [Co(NH3)6Cl3, hexammine cobalt (III) chloride]
Cytotoxicity, change (MS TPM) [1]: −34%

CC(=O)O.N [NH4OAc, ammonium acetate]
reduction in GVP toxicity ([2]; Table 3): 29% | GVP Toxicity, change ([2]; Table 3, change from control): −29% | Cytotoxicity, change (MS TPM) [1, 4]: −33% | Cytotoxicity, change (TPM) [1, 5]: −26% | Mutagenicity, change (MS TPM) [3, 4]: −11% | Mutagenicity, change (TPM) [3, 5]: 9%

CC(=O)[O-].CC(=O)[O-].CC(=O)[O-].N.N.N.N.N.N.[Co+3] [Co(NH3)6(OAc)3, hexammine cobalt (III) acetate]
GVP Toxicity, change ([2]; Table 5, Co 1.3%, NH3 2.4%, glycerin 10% where present, vs water-sprayed control): −42% | Cytotoxicity, change (TPM) [1]: −24% | TPM and GVP toxicity of cigarette smoke (in words) [1]: significant reduction

Reference: patent publication US8555897B2, “Method of making a cigarette and method of reducing cytotoxicity in tobacco smoke” (priority 2005, dated 2013)
